The NIST ThermoML archive (doi:10.1016/j.jct.2018.12.001)
Values joined by “and” are separate entries in the source; they are usually repeats but may differ in a detail not shown here. Equal values may be shown once.

Experiments:
[1] = Crystal; for vapor or sublimation pressure: Calculated from knudsen effusion weight loss; for Normal melting temperature: DTA
[2] = Molar enthalpy of transition or fusion; settings: Crystal; DSC

O=C1OC(=O)C(c2ccccc2)=C1c1ccccc1 [diphenylmaleic anhydride]
[1]
Settings	vapor or sublimation pressure
361.07 K	0.000112 kPa and 0.000113 kPa and 0.000111 kPa
363.19 K	0.00014 kPa and 0.000138 kPa
365.3 K	0.000178 kPa and 0.000175 kPa and 0.000177 kPa
367.1 K	0.000213 kPa and 0.000215 kPa
369.26 K	0.000266 kPa and 0.000265 kPa
371.29 K	0.000335 kPa and 0.000332 kPa and 0.000331 kPa
373.08 K	0.000392 kPa and 0.000393 kPa and 0.000399 kPa
375.28 K	0.000492 kPa and 0.000483 kPa and 0.000494 kPa
377.3 K	0.00061 kPa and 0.0006 kPa and 0.00059 kPa
379.19 K	0.000733 kPa and 0.000729 kPa and 0.00074 kPa
381.16 K	0.000894 kPa and 0.000891 kPa and 0.000881 kPa
383.2 K	0.001108 kPa and 0.001106 kPa and 0.00109 kPa

Settings	Molar enthalpy of transition or fusion [kcal/mol]	Normal melting temperature [°C]
[1]	–	157.52
[2]	6.52	–

c1ccc(-c2cnc(-c3ccccc3)o2)cc1 [2,5-diphenyloxazole]
[1]
Settings	vapor or sublimation pressure
328.18 K	7.2e-05 kPa
329.28 K	8.2e-05 kPa and 8.1e-05 kPa
330.3 K	9.2e-05 kPa and 9.4e-05 kPa
331.19 K	0.000103 kPa and 0.000104 kPa
332.29 K	0.000118 kPa and 0.000116 kPa
333.29 K	0.000133 kPa and 0.000135 kPa
334.19 K	0.000149 kPa and 0.000148 kPa
335.17 K	0.000167 kPa and 0.000166 kPa
336.2 K	0.000189 kPa and 0.000188 kPa
337.18 K	0.000209 kPa and 0.000212 kPa and 0.000215 kPa
338.17 K	0.000241 kPa and 0.000237 kPa and 0.000238 kPa
339.29 K	0.00027 kPa and 0.000269 kPa and 0.000268 kPa
340.25 K	0.000301 kPa and 0.0003 kPa
341.3 K	0.00034 kPa and 0.000343 kPa and 0.000342 kPa
342.3 K	0.000385 kPa and 0.000382 kPa and 0.000384 kPa

Settings	Molar enthalpy of transition or fusion [kcal/mol]	Normal melting temperature [°C]
[1]	–	71.08
[2]	5.48	–

O=C1C=C(c2ccccc2)C(=O)O1 [phenylmaleic anhydride]
[1]
Settings	vapor or sublimation pressure
319.14 K	0.000102 kPa and 0.0001 kPa
321.22 K	0.000125 kPa and 0.000126 kPa and 0.00013 kPa
323.2 K	0.000161 kPa and 0.000164 kPa and 0.000165 kPa
325.15 K	0.000202 kPa and 0.0002 kPa and 0.000205 kPa
327.17 K	0.000252 kPa and 0.00025 kPa and 0.000255 kPa
329.3 K	0.000323 kPa and 0.000321 kPa and 0.000325 kPa
331.18 K	0.000398 kPa and 0.0004 kPa and 0.000394 kPa
333.2 K	0.0005 kPa and 0.000496 kPa
335.36 K	0.000633 kPa and 0.000631 kPa and 0.000637 kPa
337.13 K	0.000764 kPa and 0.000748 kPa and 0.000772 kPa
339.23 K	0.000919 kPa and 0.000934 kPa and 0.000926 kPa
341.31 K	0.001191 kPa and 0.001182 kPa and 0.001186 kPa

Settings	Molar enthalpy of transition or fusion [kcal/mol]	Normal melting temperature [°C]
[1]	–	120.20
[2]	6.2	–
